Where no end group is shown, it is not given here.
Key:
Experiment in all cases: Octapeptide substrate specificity / kinetic characterization with partially purified yeast myristoylating enzyme (Table II)
[1] = target: T1, myristoylating enzyme from yeast (N-myristoylglycylpeptide synthetase) (Saccharomyces cerevisiae, UniProt P14743); type: biochemical; settings: for Ki: inhibition of myristoylation of the substrate Gly-Asn-Ala-Ala-Ala-Ala-Arg-Arg
T1 construct: partially purified from a crude homogenate of the cultured yeast cells by fractionation with 51-70% (NH4)2 SO4; endogenous in cells; host or cells: S. cerevisiae strain JR153; ammonium sulfate cut, DEAE-Sepharose CL-6B, CoA-agarose
T1 sequence (P14743 1-455): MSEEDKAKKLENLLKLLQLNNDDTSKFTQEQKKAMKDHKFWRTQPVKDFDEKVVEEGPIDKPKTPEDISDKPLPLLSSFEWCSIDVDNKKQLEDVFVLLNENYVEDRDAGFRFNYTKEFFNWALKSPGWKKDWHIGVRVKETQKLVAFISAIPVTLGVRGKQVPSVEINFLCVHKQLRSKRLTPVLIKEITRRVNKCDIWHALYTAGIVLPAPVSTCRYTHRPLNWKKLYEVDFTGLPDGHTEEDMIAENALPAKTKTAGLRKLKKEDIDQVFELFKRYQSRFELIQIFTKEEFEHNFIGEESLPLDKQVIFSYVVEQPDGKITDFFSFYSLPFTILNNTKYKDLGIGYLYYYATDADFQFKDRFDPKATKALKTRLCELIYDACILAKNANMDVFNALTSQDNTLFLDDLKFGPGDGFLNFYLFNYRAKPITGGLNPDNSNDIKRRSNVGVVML
Method: (§1) The synthetic octapeptide Gly-Asn-Ala-Ala-Ala-Ala-Arg-Arg was initially used to identify a unique enzymatic activity which transfers myristic acid to the amino terminal glycine of this and other peptides. […] The enzyme activity was determined in an in vitro assay which measures the transfer of [^3 H]-myristic acid to the acceptor peptide. The transfer reaction is dependent on adenosine triphosphate (ATP) and coenzyme A (CoA). The enzymatic product was then identified by high performance liquid chromatography (HPLC) by co-elution with a chemically synthesized myristoyl peptide standard. […] Both contained M-myristoyl glycine.
(§2) [^3 H]Fatty acyl CoA was synthesized enzymatically and added to the incubation as follows. The acyl CoA synthetase reaction consisted of (per one assay tube): 0.5 μCi of [^3 H]myristic acid; 25 μl of 2X assay buffer (20 mM Tris, pH 7.4, 2 mM dithiothreitol, 10 mM MgCl2, 0.2 mM EGTA); 5 μl of 50 mM ATP in distilled water, adjusted to pH 7.0 with NaOH; […] in distilled water; 15 μl of lmU/μl of Pseudomonas acyl CoA synthetase (Sigma) in 50 mM N-2-hydroxyethylpiperazine-N'-2-ethane sulfonic acid, pH 7.3; 2.5 μl of distilled water. The reaction was allowed to proceed for 20 minutes at 30° C. Typically, 40% to 50% of the [^3 H]fatty acid was converted to its CoA ester by this procedure as measured by determining the radioactivity remaining in the reaction after acidification with 6 N HCl to pH 2.0 and extraction 6 times with 5 volumes of heptane, a modification of the method of Hosaka et al., Meth. Enzymol. 71, 325-333 (1981). Fifty microliters of this reaction were added to tubes containing 40 μl of assay extraction buffer (see above) and 10 μl of 1 mM GlyAsnAlaAlaAlaAlaArgArg. The assay was initiated by the addition of 10 μl of yeast cell extract (typically 50 μg of protein) per tube, followed by incubation at 30° C. for 10 min. The assay was terminated by the addition of 110 μl of methanol and 10 μl of 100% trichloracetic acid (w/v) per tube, followed by cooling ten minutes on ice. Precipitated protein was removed by centrifugation at 8000 x g for 3 minutes in a tabletop Eppendorf centrifuge. (Under these conditions, 95% of synthetic [^3 H]myristoylpeptide or [^3 H]palmitoylpeptide remined soluble when added to an assay mixture.) Fifty microliters of the supernatant were mixed with 75 μl methanol and 75 μl of HPLC buffer A, and analyzed by reverse phase HPLC on a 3.9 mm by 30 cm Waters μ-Bondapak C18 column using the same HPLC buffers described above, starting at 35% acetonitrile and eluting with a 1% per minute acetonitrile gradient. One minute fractions were collected and the radioactivity in each fraction determined by liquid scintillation counting. [^3 H]Myristoyl-GlyAsnAlaAlaAlaAlaArgArg eluted at 24 minutes, while [^3 H]palmitoyl-GlyAsnAlaAlaAlaAlaArgArg eluted at 30 minutes.
Several octapeptides illustrating the present invention were synthesized by the solid phase Merrifield procedure essentially as described in Example 1 and then tested for activity as substrates or inhibitors for the myristoylating enzyme from yeast (S. cerevisiae strain JR153). The octapeptide substrate specificity of the enzyme was tested under the assay conditions described in Example 2 but using 1 μCi of [^3 H]- myristic acid per assay tube. The yeast enzyme used in this example was partially purified from a crude homogenate of the cultured yeast cells by fractionation with 51-70% (NH4)2 SO4 followed by ion exchange column chromatography with DEAE-Sepharose® CL-6B (Pharmacia) and affinity chromatography with CoA-agarose affinity matrix (Pharmacia).

[2] = substrate: C[C@H](NC(=O)[C@H](C)NC(=O)[C@H](C)NC(=O)[C@H](CC(N)=O)NC(=O)CN)C(=O)N[C@@H](C)C(=O)N[C@@H](CCCNC(=N)N)C(=O)N[C@@H](CCCNC(=N)N)C(N)=O; type: biochemical, Saccharomyces cerevisiae; settings: other: peptide as acyl acceptor, 1 μCi [3H]-myristic acid per tube, 30.0 °C
Method: as §1
as §2, with “The reaction was allowed to proceed for 20 minutes at 30° C.” left out, “Enzymol. 71, 325-333 (1981). Fifty microliters of this reaction were added to tubes containing 40 μl of assay extraction buffer (see above) and 10 μl of 1 mM GlyAsnAlaAlaAlaAlaArgArg. The assay was initiated by the addition of 10 μl of yeast cell extract (typically 50 μg of protein) per tube, followed by incubation at 30° C. for 10 min. The assay was terminated by the addition of 110 μl of methanol and 10 μl of 100% trichloracetic acid (w/v) per tube, followed by cooling ten minutes on ice. Precipitated protein was removed by centrifugation at 8000 x g for 3 minutes in a tabletop Eppendorf centrifuge.” left out, “[^3 H]Myristoyl-GlyAsnAlaAlaAlaAlaArgArg eluted at 24 minutes, while [^3 H]palmitoyl-GlyAsnAlaAlaAlaAlaArgArg eluted at 30 minutes.” left out

[3] = substrate: CC(C)C[C@H](NC(=O)CN)C(=O)N[C@@H](C)C(=O)N[C@@H](C)C(=O)N[C@@H](C)C(=O)N[C@@H](C)C(=O)N[C@@H](CCCNC(=N)N)C(=O)N[C@@H](CCCNC(=N)N)C(N)=O; type: biochemical, Saccharomyces cerevisiae; settings: other: peptide as acyl acceptor, 1 μCi [3H]-myristic acid per tube, 30.0 °C
Method: as §1
as §2, with “The reaction was allowed to proceed for 20 minutes at 30° C.” left out, “Enzymol. 71, 325-333 (1981). Fifty microliters of this reaction were added to tubes containing 40 μl of assay extraction buffer (see above) and 10 μl of 1 mM GlyAsnAlaAlaAlaAlaArgArg. The assay was initiated by the addition of 10 μl of yeast cell extract (typically 50 μg of protein) per tube, followed by incubation at 30° C. for 10 min. The assay was terminated by the addition of 110 μl of methanol and 10 μl of 100% trichloracetic acid (w/v) per tube, followed by cooling ten minutes on ice. Precipitated protein was removed by centrifugation at 8000 x g for 3 minutes in a tabletop Eppendorf centrifuge.” left out, “[^3 H]Myristoyl-GlyAsnAlaAlaAlaAlaArgArg eluted at 24 minutes, while [^3 H]palmitoyl-GlyAsnAlaAlaAlaAlaArgArg eluted at 30 minutes.” left out

[4] = substrate: CC(C)[C@H](NC(=O)CN)C(=O)N[C@@H](C)C(=O)N[C@@H](C)C(=O)N[C@@H](C)C(=O)N[C@@H](C)C(=O)N[C@@H](CCCNC(=N)N)C(=O)N[C@@H](CCCNC(=N)N)C(N)=O; type: biochemical, Saccharomyces cerevisiae; settings: other: peptide as acyl acceptor, 1 μCi [3H]-myristic acid per tube, 30.0 °C
Method: as §1
as §2, with “The reaction was allowed to proceed for 20 minutes at 30° C.” left out, “Enzymol. 71, 325-333 (1981). Fifty microliters of this reaction were added to tubes containing 40 μl of assay extraction buffer (see above) and 10 μl of 1 mM GlyAsnAlaAlaAlaAlaArgArg. The assay was initiated by the addition of 10 μl of yeast cell extract (typically 50 μg of protein) per tube, followed by incubation at 30° C. for 10 min. The assay was terminated by the addition of 110 μl of methanol and 10 μl of 100% trichloracetic acid (w/v) per tube, followed by cooling ten minutes on ice. Precipitated protein was removed by centrifugation at 8000 x g for 3 minutes in a tabletop Eppendorf centrifuge.” left out, “[^3 H]Myristoyl-GlyAsnAlaAlaAlaAlaArgArg eluted at 24 minutes, while [^3 H]palmitoyl-GlyAsnAlaAlaAlaAlaArgArg eluted at 30 minutes.” left out

[5] = partially purified yeast enzyme

Molecule: GFAAAARR-NH2 [Gly--Phe--Ala--Ala--Ala--Ala--Arg--Arg, Gly-Phe-Ala-Ala-Ala-Ala-Arg-Argp]
- Ki [1, 5]: 150 µM

Molecule: GNAAAARR-NH2 [Gly--Asn--Ala--Ala--Ala--Ala--Arg--Arg, Gly-Asn-Ala-Ala-Ala-Ala-Arg-Arg, reference compound]
- Vmax ([1]; absolute Vmax, footnote to Table II): 2840 pmol myristoyl peptide formed
- Relative Vmax (%) ([1]; relative to Gly-Asn-Ala-Ala-Ala-Ala-Arg-Arg = 100, partially purified yeast enzyme): 100%

Molecule: GYAAAARR-NH2 [Gly--Tyr--Ala--Ala--Ala--Ala--Arg--Arg, Gly-Tyr-Ala-Ala-Ala-Ala-Arg-Arg]
- Ki [1, 5]: 150 µM

Molecule: GLAAAARR-NH2 [Gly--Leu--Ala--Ala--Ala--Ala--Arg--Arg]
- Ki [1, 5]: 60 µM

Molecule: GVAAAARR-NH2 [Gly--Val--Ala--Ala--Ala--Ala--Arg--Arg]
- Ki [1, 5]: 60 µM

B1: myristoylating enzyme from yeast (N-myristoylglycylpeptide synthetase) (Saccharomyces cerevisiae S288C) (protein)
chain: MSEEDKAKKLENLLKLLQLNNDDTSKFTQEQKKAMKDHKFWRTQPVKDFDEKVVEEGPIDKPKTPEDISDKPLPLLSSFEWCSIDVDNKKQLEDVFVLLNENYVEDRDAGFRFNYTKEFFNWALKSPGWKKDWHIGVRVKETQKLVAFISAIPVTLGVRGKQVPSVEINFLCVHKQLRSKRLTPVLIKEITRRVNKCDIWHALYTAGIVLPAPVSTCRYTHRPLNWKKLYEVDFTGLPDGHTEEDMIAENALPAKTKTAGLRKLKKEDIDQVFELFKRYQSRFELIQIFTKEEFEHNFIGEESLPLDKQVIFSYVVEQPDGKITDFFSFYSLPFTILNNTKYKDLGIGYLYYYATDADFQFKDRFDPKATKALKTRLCELIYDACILAKNANMDVFNALTSQDNTLFLDDLKFGPGDGFLNFYLFNYRAKPITGGLNPDNSNDIKRRSNVGVVML
notes: partially purified from a crude homogenate of the cultured yeast cells by fractionation with 51-70% (NH4)2 SO4; endogenous in cells; host or cells: S. cerevisiae strain JR153; ammonium sulfate cut, DEAE-Sepharose CL-6B, CoA-agarose
- Km [2]: 60 µM
- Km [3]: 0.3 mM
- Km [4]: 0.7 mM

From US4709012A, “Novel inhibitor peptides” (Washington University, priority 1986, dated 1987)
